In turn, `Cc1cc(C#N)c2ccccn12` returned a melting point of 98 to 100 °C.
In turn, `CSCC[C@@H](NC(=O)[C@H](Cc1ccc(O)cc1)NC(=O)OC(C)(C)C)C(=O)NCC(=O)O` gave a melting point of 194 °C.
On to `CCOc1c(-c2ccc(F)cc2)c(=O)c1=O`, for which the melting point lay in the range of 126 to 129 °C.
Under `Nc1ccc(Cc2ccc(N)c(C(F)(F)F)c2)cc1C(F)(F)F` stands 84 to 88 °C; under `COc1cc(COc2nn(-c3ccccc3)cc2/C=C/c2csc(CO)n2)ccc1OCc1nc(-c2ccc(CC(=O)O)cc2)oc1C`, 204 to 205 °C.
Consider `COc1ccc(-c2cc(C(=O)C(C)CN3CCCC3)on2)cc1` (stereo unspecified), for which the melting point is 75 to 77 °C.
`NC(=O)C(NC(=O)OCc1ccccc1)C(O)CO` (stereo unspecified) yielded a melting point of 175 to 176 °C.
As to `CC1(C)Oc2ccc(C#N)cc2C(n2ccc(-c3ccc([N+](=O)[O-])cc3)cc2=O)C1O` (stereo unspecified), the melting point was in the range of 278 to 284 °C.
As for `OC(CCN1CCN(c2ccc(F)cc2)CC1)COc1ccccc1` (stereo unspecified), the melting point fell in the range of 97 to 99 °C.
Compound `Cc1noc(=O)c2ccc(NC(=O)C(C)(O)CC3(c4cccc(C(F)(F)F)c4)CC3)cc12` (stereo unspecified) returned a melting point of 75 to 76 °C.
With `COc1cc(F)ccc1Oc1c(Cl)nc(-c2ncccn2)nc1NS(=O)(=O)c1ccc(C(C)(C)C)cc1`, the melting point lay in the range of 225 to 227 °C.
Compound `O=Cc1ccc(Sc2nc3c(F)c(F)c(F)cc3[nH]2)o1` returned a melting point of 152 °C.
Regarding `C=CC(=O)N1CCSC1c1cc(C(C)(C)C)c(O)c(C(C)(C)C)c1` (stereo unspecified), the melting point fell in the range of 147 to 149 °C.
`N=C(NCc1ccncc1)NN=Cc1c(Cl)cccc1Cl` had a melting point of 159 to 161 °C.
For `Cc1ccccc1C(=O)Nc1ccc(C(=O)N2c3ccccc3CNc3ccccc32)cc1`, the melting point fell in the range of 68 to 71 °C.
For `C=Cc1cn(S(=O)(=O)c2ccc(C)cc2)c2ccc(C#N)cc12`, the melting point fell in the range of 134 to 135 °C.
Then `COc1cccc(CC(=O)Nc2ccc3sc(C)nc3c2Cl)c1`, with 147 to 148 °C.
Compound `COc1ccccc1-c1n[nH]c(-c2ccccc2C)n1` showed a melting point of 160 to 161 °C.
`Oc1ccc(N=Nc2cccc(Cl)c2Cl)c(Cl)c1Cl` registered a melting point of 197 to 199 °C.
Then `COC(=O)CNc1cccc(C(F)(F)F)c1`, with 60 to 63 °C; and `CC1(C)NCC(c2ccccc2)=NO1`, with 93 to 95 °C.
`Nc1c(Br)cc(F)c(Cl)c1F`: the melting point amounted to 62 °C.
As to `O=Cc1ccc(COC(=O)Nc2cccc3ccccc23)cc1`, the melting point lay within 153 to 154 °C.
On to `O=C(Nc1ccc(Cl)c(C(F)(F)F)c1)Nc1ccc(OCc2ccccc2)cc1O`, for which the melting point lay in the range of 182 to 184 °C.
Regarding `CNc1nc(-c2ccccc2)c(-c2nc3ccccc3c(=O)n2-c2ccccc2)s1`, the melting point lay within 224 to 225 °C.
Under `CCOC(=O)C=Cc1cccc(OCc2nc(-c3ccccc3)oc2C)c1` stands 91 to 92 °C; under `O=c1[nH]c2ccc(CCCNCC[C@H]3CC[C@H](c4ccc(F)cc4)CC3)cc2o1`, 99 to 109 °C; under `Oc1ccc(Cl)cc1CN1CCCCC1`, 53 to 56 °C.
Turning to `CCCCNC(=O)Oc1ccc(Oc2ccc(C(C)(C)C)cc2)cc1`, the melting point fell in the range of 78 to 80 °C.
Compound `O=C(O)C(c1ccc(Cl)cc1)c1ccc(-n2ncc(=O)[nH]c2=O)cc1Cl` (stereo unspecified) returned a melting point of 196 °C.
Compound `CC(C)(C)C(=O)C(Br)C(c1ccc(Cl)cc1)S(=O)(=O)c1ccccc1` (stereo unspecified) gave a melting point of 167 to 168 °C.
Regarding `OCCNc1ccnc2cc3c(cc12)OCO3`, the melting point is 233 to 234 °C.
`O=C1Cc2cc3c(cc2C(c2ccc([N+](=O)[O-])cc2)=NN1)OCO3` came in with a melting point of 293 to 295 °C.
In the case of `Cc1cc(O)c(S(=O)Cc2ccc(Cl)cc2Cl)c(=O)o1` (stereo unspecified), the melting point was 144 to 146 °C.
Then `OC1CC2(CCCC2)Oc2ccc(Br)cc21` (stereo unspecified), with 123 to 124 °C; and `CN(C)c1ccc(-c2cc3nccnc3[nH]2)cc1CCC(=O)O`, with 269 to 271 °C.

As usually defined, the melting point is the temperature of the solid-liquid transition.

Values taken from a melting point compilation (Tetko et al.; mined from patent text by program, amines drawn as free bases though some values may be those of a salt).
